Experimental data: patent US20250066376A1, “OPIOID RECEPTOR ANTAGONIST PRODRUGS” (Nirsum Laboratories, Inc., priority 2024, published 2025)

Assay: Solubility of naloxone and naltrexone prodrug compounds
Type: physicochemical
Details: for Solubility in water: lower limit of aqueous solubility; for Solubility in cottonseed oil / Solubility in miglyol 812N / Solubility in sesame oil: solubility study in oil excipients at 50 mg/ml (base equivalents)
Text: Example 12: Solubility of Naloxone and Naltrexone Prodrug Compounds
Table 12 and Table 13 report the solubility data for the naloxone and naltrexone prodrug compounds, respectively.

Structure (SMILES)	Solubility in water	Solubility in cottonseed oil (naltrexone prodrugs (Table 13))	Solubility in miglyol 812N (naltrexone prodrugs (Table 13))	Solubility in sesame oil (naltrexone prodrugs (Table 13))	Solubility in cottonseed oil (naloxone prodrugs (Table 12))	Solubility in miglyol 812N (naloxone prodrugs (Table 12))	Solubility in sesame oil (naloxone prodrugs (Table 12))
CCCCCCCCOC(=O)OCOc1ccc2c3c1O[C@H]1C(=O)CC[C@@]4(O)[C@@H](C2)N(CC2CC2)CC[C@]314 [IV-6, [(3R,4aS,7aR,12bS)-3-(cyclopropylmethyl)-4a-hydroxy-7-oxo-2,4,5,6,7a,13-hexahydro-1H-4,12-methanobenzofuro[3,2-e]isoquinoline-9-yl]oxymethyl octyl carbonate]	Solubility in water: <0.001 mg/mL	In cottonseed oil: >50.28 mg/mL	In miglyol 812N: >50.11 mg/mL	In sesame oil: >50.43 mg/mL	–	–	–
C=CCN1CC[C@]23c4c5ccc(OCOC(=O)CCCCC)c4O[C@H]2C(=O)CC[C@@]3(O)[C@H]1C5 [III-1, [(3R,4aS,7aR,12bS)-3-allyl-4a-hydroxy-7-oxo-2,4,5,6,7a,13-hexahydro-1H-4,12-methanobenzofuro[3,2-e]isoquinoline-9-yl]oxymethyl hexanoate]	Solubility in water: <0.001 mg/mL	–	–	–	In cottonseed oil: >50.03 mg/ml	In miglyol 812N: <50.53 mg/ml	In sesame oil: >50.01 mg/ml
CCCCOC(=O)OCOc1ccc2c3c1O[C@H]1C(=O)CC[C@@]4(O)[C@@H](C2)N(CC2CC2)CC[C@]314 [IV-4, [(3R,4aS,7aR,12bS)-3-(cyclopropylmethyl)-4a-hydroxy-7-oxo-2,4,5,6,7a,13-hexahydro-1H-4,12-methanobenzofuro[3,2-e]isoquinoline-9-yl]oxymethyl butyl carbonate]	Solubility in water: <0.001 mg/mL	In cottonseed oil: <50.12 mg/mL	In miglyol 812N: <50.41 mg/mL	In sesame oil: <50.07 mg/mL	–	–	–
CCCCCCOC(=O)OCOc1ccc2c3c1O[C@H]1C(=O)CC[C@@]4(O)[C@@H](C2)N(CC2CC2)CC[C@]314 [IV-5, [(3R,4aS,7aR,12bS)-3-(cyclopropylmethyl)-4a-hydroxy-7-oxo-2,4,5,6,7a,13-hexahydro-1H-4,12-methanobenzofuro[3,2-e]isoquinoline-9-yl]oxymethyl hexyl carbonate]	Solubility in water: <0.001 mg/mL	In cottonseed oil: <50.19 mg/mL	In miglyol 812N: <50.24 mg/mL	In sesame oil: >50.31 mg/mL	–	–	–
C=CCN1CC[C@]23c4c5ccc(OCOC(=O)CCCCC)c4O[C@H]2C(=O)CC[C@@]3(O)[C@H]1C5 [III-2, [(3R,4aS,7aR,12bS)-3-allyl-4a-hydroxy-7-oxo-2,4,5,6,7a,13-hexahydro-1H-4,12-methanobenzofuro[3,2-e]isoquinoline-9-yl]oxymethyl hexanoate]	Solubility in water: <0.001 mg/mL	–	–	–	In cottonseed oil: >50.48 mg/ml	In miglyol 812N: <50.28 mg/ml	In sesame oil: <50.44 mg/ml
